The values that follow come from BindingDB's records for doi:10.1021/jf050110v (China Pharmaceutical University, 2020).

SMILES strings stand for the structures.

The target in this experiment is High affinity nerve growth factor receptor (Homo sapiens, UniProt P04629). The experiment is described as follows: Inhibition of wild type […] (unknown origin) incubated for 30 mins by caliper mobility shift assay.

What is called IC50 is the concentration at which inhibition is half-maximal.

High affinity nerve growth factor receptor, sequence (P04629 whole entry): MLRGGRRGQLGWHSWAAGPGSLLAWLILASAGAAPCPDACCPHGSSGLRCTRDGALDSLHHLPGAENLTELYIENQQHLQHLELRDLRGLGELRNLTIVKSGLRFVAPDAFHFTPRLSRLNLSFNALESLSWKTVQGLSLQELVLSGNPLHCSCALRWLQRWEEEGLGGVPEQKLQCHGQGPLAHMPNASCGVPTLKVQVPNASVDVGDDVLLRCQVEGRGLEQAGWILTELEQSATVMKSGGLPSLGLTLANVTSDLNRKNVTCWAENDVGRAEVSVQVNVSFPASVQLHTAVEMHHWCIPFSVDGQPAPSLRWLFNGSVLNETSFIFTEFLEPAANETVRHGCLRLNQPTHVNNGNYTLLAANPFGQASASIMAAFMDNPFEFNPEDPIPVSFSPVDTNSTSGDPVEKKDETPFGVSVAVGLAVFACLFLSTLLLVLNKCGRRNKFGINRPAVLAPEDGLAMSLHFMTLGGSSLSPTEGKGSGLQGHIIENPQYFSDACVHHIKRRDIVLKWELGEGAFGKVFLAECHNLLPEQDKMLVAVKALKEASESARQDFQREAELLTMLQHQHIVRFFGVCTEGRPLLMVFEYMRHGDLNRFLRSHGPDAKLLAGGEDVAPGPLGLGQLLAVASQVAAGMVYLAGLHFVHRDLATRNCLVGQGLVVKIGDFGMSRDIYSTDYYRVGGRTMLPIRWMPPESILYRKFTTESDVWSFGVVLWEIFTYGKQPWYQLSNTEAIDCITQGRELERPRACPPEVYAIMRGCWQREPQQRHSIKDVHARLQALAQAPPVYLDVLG

`O=C(NC1CCOCC1)c1cnn2ccc(NCc3cccc(F)c3)nc12`: the IC50 came to 3.6 nM.

On to `O=C(N[C@H]1CC[C@H](O)CC1)c1cnn2ccc(NCc3cccc(F)c3)nc12`, for which the IC50 was 1.6 nM.

`CO[C@H]1CC[C@H](NC(=O)c2cnn3ccc(NCc4cccc(F)c4)nc23)CC1`: the IC50 worked out at 1.5 nM.

Take `CC(Nc1ccn2ncc(C(=O)NC3CCOCC3)c2n1)c1cccc(F)c1` (stereo unspecified): the IC50 was found to be 2.1 nM.

`CC(Nc1ccn2ncc(C(=O)N[C@H]3CC[C@H](O)CC3)c2n1)c1cccc(F)c1` (stereo partly specified): the IC50 stood at 3 nM.

Consider `CN(Cc1cccc(F)c1)c1ccn2ncc(C(=O)NC3CCOCC3)c2n1`, for which the IC50 is 3.2 nM.

For the molecule `CN(Cc1cccc(F)c1)c1ccn2ncc(C(=O)N[C@H]3CC[C@H](O)CC3)c2n1`, the IC50 was determined as 1.3 nM.

Turning to `CO[C@H]1CC[C@H](NC(=O)c2cnn3ccc(N(C)Cc4cccc(F)c4)nc23)CC1`, the IC50 is 1.1 nM.

`O=C(NC1CCOCC1)c1cnc2ccc(NCc3cccc(F)c3)nn12`: the 50% inhibitory concentration (IC50) was 8.4 nM.

Turning to `O=C(N[C@H]1CC[C@H](O)CC1)c1cnc2ccc(NCc3cccc(F)c3)nn12`, the IC50 was 2.8 nM.

On to `CO[C@H]1CC[C@H](NC(=O)c2cnc3ccc(NCc4cccc(F)c4)nn23)CC1`, for which the IC50 came to 3 nM.
